In patent US9675615B2, “2,3-dihydroquinazolin-4(1H)-one derivatives for use in the treatment of viral infections” (priority 2012, dated 2017):
pIC50: −log10 of the molar value. Like-named read-outs stand apart in the source and are kept apart here.

What was measured:
Ebolavirus = conditions: cited from earlier work
[1] = system: recombinant Ebolavirus that encodes green fluorescent protein; assay: microbe, parasite or virus in culture; assay type: cell-based; conditions: read-out: IC50 (concentration that results in 50% inhibition of infection)
filoviruses = conditions: cited from earlier work

Compound | pIC50 ([1]; Orthoebolavirus, HeLa) | also measured
C[C@H]1CCC/C=C/[C@@H]2C[C@H](O)C[C@H]2[C@H](O)/C=C/C(=O)O1 [Brefeldin A] | – | effect on Ebolavirus infectivity (Ebolavirus): loss of infectivity
CCc1ccc(C2Nc3ccccc3C(=O)N2c2ccccc2)s1 (centres unmarked) [Compound 7, 2-(5-Ethylthiophen-2-yl)-3-phenyl-2,3-dihydroquinazolin-4(1H)-one] | 4.96 | –
O=C1c2ccccc2NC(c2ccc(-c3ccccc3)s2)N1c1ccccc1 (centres unmarked) [Compound 13, 3-Phenyl-2-(5-phenylthiophen-2-yl)-2,3-dihydroquinazolin-4(1H)-one] | 5.38 | –
CSc1ccc(C2Nc3ccccc3C(=O)N2c2ccccc2)s1 (centres unmarked) [Compound 17, 2-(5-(Methylthio)thiophen-2-yl)-3-phenyl-2,3-dihydroquinazolin-4(1H)-one] | 5.13 | –
O=C1c2ccccc2NC(c2ccc(-c3cccs3)s2)N1c1ccccc1 (centres unmarked) [Compound 18, 2-([2,2′-Bithiophen]-5-yl)-3-phenyl-2,3-dihydroquinazolin-4(1H)-one] | 5.33 | –
O=C1c2ccccc2NC(c2ccc(-c3ccccn3)s2)N1c1ccccc1 (centres unmarked) [Compound 19, 3-Phenyl-2-(5-(pyridin-2-yl)thiophen-2-yl)-2,3-dihydroquinazolin-4(1H)-one] | 5.25 | –
O=C1c2ccccc2NC(c2ccc(-c3ccco3)s2)N1c1ccccc1 (centres unmarked) [Compound 20, 2-(5-(Furan-2-yl)thiophen-2-yl)-3-phenyl-2,3-dihydroquinazolin-4(1H)-one] | 5.27 | –
Cc1nc(-c2ccc(C3Nc4ccccc4C(=O)N3c3ccccc3)s2)cs1 (centres unmarked) [Compound 21, 2-(5-(2-Methylthiazol-4-yl)thiophen-2-yl)-3-phenyl-2,3-dihydroquinazolin-4(1H)-one] | 5.64 | –
CC(Cc1ccc(O)c(O)c1)C(C)Cc1ccc(O)c(O)c1 (centres unmarked) [NDGA] | – | effect on Ebolavirus infectivity (Ebolavirus): loss of infectivity
Cc1ccc(C2Nc3ccccc3C(=O)N2c2ccccc2)s1 (centres unmarked) [Retro-2^cycl, reference compound] | – | pIC50 [1]: 4.37
NC(=O)c1ncn([C@@H]2O[C@H](CO)[C@@H](O)[C@H]2O)n1 [ribavirin] | – | efficacy against filoviruses (filoviruses): ineffective
